According to ChEMBL document CHEMBL5370672, “Discovery of Orally Bioavailable Phthalazinone Analogues as an ENPP1 Inhibitor for STING-Mediated Cancer Immunotherapy” (J Med Chem, 2023):
Activity calls are given as the source filed them. The calls are words filed in the database; no cut-off is given here.

Experiments:
[1] = target: Stimulator of interferon genes protein (Homo sapiens) (UniProt Q86WV6); test: (§1) Activation of STING-mediated immune response in STING knockout human THP-1 cells transfected with ISRE reporter assessed as increase in cGAMP-induced ISRE activation upto 50 uM preincubated with compound for 1 hrs followed by cGAMP addition and measured after 24 hrs by luciferase reporter gene assay; format: cell-based; conditions: time 25.0 hrs
Chain of Stimulator of interferon genes protein (Homo sapiens) (Q86WV6 whole entry): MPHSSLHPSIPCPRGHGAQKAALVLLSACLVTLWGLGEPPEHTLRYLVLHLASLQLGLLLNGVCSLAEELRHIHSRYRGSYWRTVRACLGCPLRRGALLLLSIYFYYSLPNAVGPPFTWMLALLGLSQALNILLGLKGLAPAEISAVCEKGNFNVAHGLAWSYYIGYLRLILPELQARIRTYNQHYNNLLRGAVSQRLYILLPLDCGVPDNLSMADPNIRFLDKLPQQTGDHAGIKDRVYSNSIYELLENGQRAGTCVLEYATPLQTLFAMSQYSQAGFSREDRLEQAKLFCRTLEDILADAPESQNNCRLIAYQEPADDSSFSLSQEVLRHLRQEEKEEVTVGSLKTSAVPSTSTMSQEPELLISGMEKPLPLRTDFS

CT26 [2] = test: Antitumor activity against mouse CT26 cells implanted in BALB/c mouse assessed as tumor growth inhibition at 200 mg/kg, po administered for 2 weeks and measured on day 15 relative to control; format: functional; conditions: CT26, 360 h, time 15 day, read-out: TGI
[3] = Toxicity in BALB/c mouse implanted with mouse CT26 cells assessed as effect on body weight at 200 mg/kg, po preadministered with compound for 2 weeks followed by reinoculation of CT26 cells and measured on day 19 in the presence of anti-PD-L1 antibody; format: organism-based; conditions: in vivo, 456 h, time 19 day
[4] = Volume of distribution at steady state in BALB/c mouse at 5 mg/kg, iv measured after 24 hrs by LC-MS/MS analysis; format: ADME, organism-based; conditions: in vivo, read-out: Vdss
[5] = Tmax in BALB/c mouse at 5 mg/kg, iv measured after 24 hrs by LC-MS/MS analysis; format: ADME, organism-based; conditions: in vivo
[6] = MRT (0 to infinity) in BALB/c mouse at 5 mg/kg, iv measured after 24 hrs by LC-MS/MS analysis; format: ADME, organism-based; conditions: in vivo
THP-1 = test: Cytotoxicity against human THP-1 cells assessed as reduction in cell viability upto 50 uM incubated for 24 hrs in the presence of cGAMP by celltiter 96 aqueous one solution cell proliferation assay; format: toxicity, cell-based; conditions: thp-1, 24 h
[7] = target: Stimulator of interferon genes protein (Homo sapiens) (UniProt Q86WV6); test: (§2) Activation of STING-mediated immune response in human HCT-116 cells transfected with ISRE reporter assessed as increase in cGAMP-induced ISRE activation at 25 to 100 uM preincubated with compound for 1 hrs followed by cGAMP addition and measured after 48 hrs by luciferase reporter gene assay; format: cell-based; conditions: filed as activator, dose 25-100 µM, time 49.0 hrs
[8] = MRT (0 to t) in BALB/c mouse at 20 mg/kg, po measured after 24 hrs by LC-MS/MS analysis; format: ADME, organism-based; conditions: in vivo
[9] = AUC (0 to t) in BALB/c mouse at 5 mg/kg, iv measured after 24 hrs by LC-MS/MS analysis; format: ADME, organism-based; set-up: dose 5 mg/kg, time 24 hrs, route iv; conditions: in vivo
CT26 [10] = test: Antitumor activity against mouse CT26 cells implanted in BALB/c mouse assessed as tumor growth inhibition at 200 mg/kg, po administered for 2 weeks and measured on day 15 in the presence of anti-PD-L1 antibody relative to control; format: functional; conditions: CT26, 360 h, time 15 day, read-out: TGI
[11] = target: Stimulator of interferon genes protein (Homo sapiens) (UniProt Q86WV6); test: as §1, with “in” for “in STING knockout”, “by measuring fold change at 25 to” for “upto”; format: cell-based; conditions: filed as activator, dose 25-50 µM, time 25.0 hrs
[12] = AUC (0 to infinity) in BALB/c mouse at 5 mg/kg, iv measured after 24 hrs by LC-MS/MS analysis; format: ADME, organism-based; set-up: dose 5 mg/kg, time 24 hrs, route iv; conditions: in vivo
[13] = Metabolic stability in human liver microsome assessed as half-life by LC/MS analysis; format: ADME; conditions: liver microsomes
Cytochrome P450 2C9 = Cytochrome P450 2C9 (Homo sapiens, UniProt P11712); test: Inhibition of CYP2C9 in human liver microsomes; format: ADME, Microsome
Chain of Cytochrome P450 2C9 (P11712 whole entry): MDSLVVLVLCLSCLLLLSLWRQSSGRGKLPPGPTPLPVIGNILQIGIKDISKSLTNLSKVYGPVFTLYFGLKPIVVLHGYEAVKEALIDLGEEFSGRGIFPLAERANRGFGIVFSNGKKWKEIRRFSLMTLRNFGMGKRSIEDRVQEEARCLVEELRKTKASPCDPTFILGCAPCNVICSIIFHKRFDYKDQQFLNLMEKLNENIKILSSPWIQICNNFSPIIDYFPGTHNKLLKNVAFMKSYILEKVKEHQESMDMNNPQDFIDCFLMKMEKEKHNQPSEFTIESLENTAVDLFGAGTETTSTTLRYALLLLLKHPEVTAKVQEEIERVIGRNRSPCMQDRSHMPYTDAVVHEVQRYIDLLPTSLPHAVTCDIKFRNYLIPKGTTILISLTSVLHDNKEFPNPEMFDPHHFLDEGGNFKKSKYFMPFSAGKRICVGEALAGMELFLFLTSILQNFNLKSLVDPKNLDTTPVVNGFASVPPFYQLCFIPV

Cytochrome P450 3A4 = Cytochrome P450 3A4 (Homo sapiens, UniProt P08684); test: Inhibition of CYP3A4 in human liver microsomes; format: ADME, Microsome
Chain of Cytochrome P450 3A4 (P08684 whole entry): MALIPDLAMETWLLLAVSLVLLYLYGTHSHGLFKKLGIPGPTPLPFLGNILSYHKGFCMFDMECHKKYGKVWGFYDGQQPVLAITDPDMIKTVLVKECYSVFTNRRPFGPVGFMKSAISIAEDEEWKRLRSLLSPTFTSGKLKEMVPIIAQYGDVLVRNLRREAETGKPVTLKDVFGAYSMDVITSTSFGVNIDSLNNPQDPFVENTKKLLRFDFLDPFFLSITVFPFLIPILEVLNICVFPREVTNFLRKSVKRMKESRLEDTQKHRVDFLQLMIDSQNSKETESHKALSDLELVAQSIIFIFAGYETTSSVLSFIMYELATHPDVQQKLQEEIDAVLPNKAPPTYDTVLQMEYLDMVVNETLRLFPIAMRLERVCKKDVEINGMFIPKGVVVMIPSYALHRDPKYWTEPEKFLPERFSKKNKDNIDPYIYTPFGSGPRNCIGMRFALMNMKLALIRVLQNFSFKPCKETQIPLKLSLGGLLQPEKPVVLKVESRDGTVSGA

[14] = Cmax in BALB/c mouse at 5 mg/kg, iv measured after 24 hrs by LC-MS/MS analysis; format: ADME, organism-based; set-up: dose 5 mg/kg, time 24 hrs, route iv; conditions: in vivo
[15] = Toxicity in BALB/c mouse implanted with mouse CT26 cells assessed as effect on body weight at 200 mg/kg, po administered for 2 weeks and measured on day 15; format: organism-based; conditions: in vivo, 360 h, time 15 day
Cytochrome P450 1A2 = target: T1, Cytochrome P450 1A2 (Homo sapiens, UniProt P05177); test: Inhibition of CYP1A2 in human liver microsomes; format: ADME, Microsome
T1 sequence (P05177 whole entry): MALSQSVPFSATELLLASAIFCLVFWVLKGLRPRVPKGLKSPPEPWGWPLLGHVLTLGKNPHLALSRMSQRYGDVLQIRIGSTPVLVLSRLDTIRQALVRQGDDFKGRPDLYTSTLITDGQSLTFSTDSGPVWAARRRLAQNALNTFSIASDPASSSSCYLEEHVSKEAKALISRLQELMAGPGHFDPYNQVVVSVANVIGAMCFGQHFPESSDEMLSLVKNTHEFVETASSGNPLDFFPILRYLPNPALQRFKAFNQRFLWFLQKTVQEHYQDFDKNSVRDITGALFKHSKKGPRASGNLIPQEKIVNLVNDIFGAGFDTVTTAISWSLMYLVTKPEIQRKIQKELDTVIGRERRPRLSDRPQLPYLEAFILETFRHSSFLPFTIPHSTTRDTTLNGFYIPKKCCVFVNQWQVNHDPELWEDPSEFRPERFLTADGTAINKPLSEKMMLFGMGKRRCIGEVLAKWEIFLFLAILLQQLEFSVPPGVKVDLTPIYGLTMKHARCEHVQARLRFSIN

[16] = AUC (0 to infinity) in BALB/c mouse at 20 mg/kg, po measured after 24 hrs by LC-MS/MS analysis; format: ADME, organism-based; set-up: time 24 hrs, dose 20 mg/kg, route po; conditions: in vivo
[17] = Cmax in BALB/c mouse at 20 mg/kg, po measured after 24 hrs by LC-MS/MS analysis; format: ADME, organism-based; set-up: dose 20 mg/kg, time 24 hrs, route po; conditions: in vivo
[18] = Metabolic stability in human liver microsome assessed as intrinsic clearance by LC/MS analysis; format: ADME; conditions: liver microsomes, read-out: CLH
HCT-116 = test: Cytotoxicity against human HCT-116 cells assessed as reduction in cell viability upto 200 uM incubated for 48 hrs in the presence of cGAMP by celltiter 96 aqueous one solution cell proliferation assay; format: functional, cell-based
[19] = Metabolic stability in human liver microsome assessed as parent compound remaining measured after 30 mins by LC/MS analysis; format: ADME; conditions: liver microsomes, read-out: Stability
Cytochrome P450 2D6 = Cytochrome P450 2D6 (Homo sapiens, UniProt P10635); test: Inhibition of CYP2D6 in human liver microsomes; format: ADME, Microsome
Chain of Cytochrome P450 2D6 (P10635 whole entry): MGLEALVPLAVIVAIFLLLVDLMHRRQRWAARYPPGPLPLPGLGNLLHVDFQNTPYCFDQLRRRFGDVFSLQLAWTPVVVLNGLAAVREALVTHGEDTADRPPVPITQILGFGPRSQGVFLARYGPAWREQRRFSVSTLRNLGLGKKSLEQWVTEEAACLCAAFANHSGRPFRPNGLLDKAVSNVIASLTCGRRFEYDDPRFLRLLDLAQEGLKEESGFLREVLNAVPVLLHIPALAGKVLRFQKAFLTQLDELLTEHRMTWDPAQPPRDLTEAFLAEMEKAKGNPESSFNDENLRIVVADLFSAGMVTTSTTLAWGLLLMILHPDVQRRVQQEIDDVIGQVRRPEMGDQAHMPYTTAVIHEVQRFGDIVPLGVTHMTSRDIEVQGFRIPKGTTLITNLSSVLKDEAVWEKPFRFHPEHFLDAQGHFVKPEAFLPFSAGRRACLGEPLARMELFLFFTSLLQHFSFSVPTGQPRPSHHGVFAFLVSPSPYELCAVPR

[20] = MRT (0 to t) in BALB/c mouse at 5 mg/kg, iv measured after 24 hrs by LC-MS/MS analysis; format: ADME, organism-based; conditions: in vivo
[21] = MRT (0 to infinity) in BALB/c mouse at 20 mg/kg, po measured after 24 hrs by LC-MS/MS analysis; format: ADME, organism-based; conditions: in vivo
[22] = target: Stimulator of interferon genes protein (Homo sapiens) (UniProt Q86WV6); test: as §2, with “activation by measuring fold change” for “activation”; format: cell-based; conditions: filed as activator, dose 25-100 µM, time 49.0 hrs
[23] = Metabolic stability in mouse liver microsome assessed as intrinsic clearance by LC/MS analysis; format: ADME; conditions: liver microsomes, read-out: CLH
[24] = Clearance in BALB/c mouse at 5 mg/kg, iv measured after 24 hrs by LC-MS/MS analysis; format: ADME, organism-based; conditions: in vivo
[25] = Toxicity in BALB/c mouse implanted with mouse CT26 cells assessed as effect on body weight at 200 mg/kg, po preadministered with compound for 2 weeks followed by reinoculation of CT26 cells and measured on day 19; format: organism-based; conditions: in vivo, 456 h, time 19 day

Activity [1]: inactive | Vd [4]: 0.51 L/kg | Tmax [5]: 4.8 min | MRT inf [6]: 3.21 h | Activity [7]: Active | MRT last at 24 h [8]: 3.75 h | AUC(0-t) at 24 h [9]: 30400 ng·h/mL | fold change (FC) [11]: < 30 | AUC(0-inf) [12]: 30900 ng·h/mL | half-life [13]: > 2 h | IC50 (Cytochrome P450 2C9): > 10 µM | IC50 (Cytochrome P450 3A4): > 10 µM | Cmax [14]: 9540 ng/mL | IC50 (Cytochrome P450 1A2): > 10 µM | AUC(0-inf) [16]: 79600 ng·h/mL | Cmax [17]: 12700 ng/mL | CLint scaled [18]: < 14.5 mL/min/kg | remaining at 0.5 h [19]: 87% | IC50 (Cytochrome P450 2D6): > 10 µM | MRT last at 24 h [20]: 2.83 h | MRT inf [21]: 3.81 h | fold change (FC) [22]: 3.63 | CLint scaled [23]: 92.1 mL/min/kg | clearance [24]: 2.88 mL/min/kg
SMILES: Cn1nc(Cc2ccc(NS(N)(=O)=O)cc2)c2ccccc2c1=O
inhibition in vivo at 200 mg/kg (CT26 [2]): 55% | Activity [3]: Non-Toxic | Activity (THP-1): Non-Toxic | inhibition in vivo at 200 mg/kg (CT26 [10]): 69% | Activity [15]: Non-Toxic | Activity (HCT-116): Not toxic | Activity [25]: Non-Toxic
